Test results from ChEMBL document CHEMBL1150634, “New dimeric macrolide glycosides from the marine sponge Myriastra clavosa” (J Nat Prod, 2002).
Activity calls are given as the source filed them.

Legend:
Type in all cases: functional, cell-based
A549 = experiment: Cytotoxicity against human A549 cells at 10 ug/mL after 2 days by XTT assay
K562 = experiment: Cytotoxicity against human K562 cells at 10 ug/mL after 2 days by XTT assay
MOLT-4 = experiment: Cytotoxicity against human MOLT4 cells at 10 ug/mL after 2 days by XTT assay
LOX = experiment: Cytotoxicity against human LOX cells at 10 ug/mL after 2 days by XTT assay
Malme-3M = experiment: Cytotoxicity against human MALME-3M cells at 10 ug/mL after 2 days by XTT assay
MCF7 = experiment: Cytotoxicity against human MCF7 cells at 10 ug/mL after 2 days by XTT assay
COLO 205 = experiment: Cytotoxicity against human COLO205 cells at 10 ug/mL after 2 days by XTT assay
SNB-19 = experiment: Cytotoxicity against human SNB19 cells at 10 ug/mL after 2 days by XTT assay
OVACR3 = experiment: Cytotoxicity against […] at 10 ug/mL after 2 days by XTT assay
NCI-H460 = experiment: Cytotoxicity against human H460 cells at 10 ug/mL after 2 days by XTT assay

Measured: Activity

CO[C@@H]1[C@@H](OC)[C@H](O[C@H]2C[C@H]3C[C@@H]([C@H]4C[C@@H]4C)OC(=O)C[C@@H]4O[C@@H](C[C@H](O[C@@H]5OC[C@@H](OC)[C@H](OC)[C@H]5OC)[C@H]4C)C[C@@H]([C@H]4C[C@@H]4C)OC(=O)C[C@H](O3)[C@@H]2C)OC[C@H]1O
inactive: all assays above
